The source made the active and inactive calls. The rule behind the calls is not given here.
Columns and labels:
[1] = test system: SU-DHL-6; assay: Induction of cell cycle arrest in human SU-DHL-6 cells assessed as accumulation of cells at sub G1 phase at 1 to 5 uM after 24 hrs by flow cytometry; format: functional, cell-based; details: dose 1-5 µM
[2] = test system: SU-DHL-2; assay: Antiproliferative activity against human SUDHL2 cells assessed as viable cells at 10 uM by cello meter auto T4 cell counter relative to control; format: functional; details: read-out: Activity
[3] = test system: SUD4; assay: Antiproliferative activity against human SU-DHL-4 cells assessed as viable cells at 10 uM by cello meter auto T4 cell counter relative to control; format: functional; details: read-out: Activity
[4] = test system: SU-DHL-6; assay: Antiproliferative activity against human SU-DHL-6 cells assessed as viable cells at 10 uM by cello meter auto T4 cell counter relative to control; format: functional; details: read-out: Activity
[5] = test system: SU-DHL-2; assay: Antiproliferative activity against EZH2 knockdown human SUDHL2 cells assessed as cell growth inhibition measured upto 6 days; format: functional, cell-based; details: time day <=6
[6] = test system: SU-DHL-6; assay: Induction of cell cycle arrest in human SU-DHL-6 cells assessed as accumulation of cells at G0/G1 phase at 1 to 5 uM after 24 hrs by flow cytometry; format: functional, cell-based; details: dose 1-5 µM
[7] = test system: SU-DHL-6; assay: Induction of apoptosis in human SU-DHL-6 cells at 1 to 5 uM incubated for 48 hrs by Annexin V/propidium iodide staining based flow cytometry; format: functional, cell-based; details: dose 1-5 µM
[8] = Toxicity in nude BALB/c mouse xenografted with SU-DHL-6 cells assessed as weight loss at 42.5 mg/kg, ip administered for 6 times weekly for 3 weeks; format: organism-based; details: in vivo, 504 h
[9] = test system: SU-DHL-6; assay: Antitumor activity against human SU-DHL-6 cells xenografted in nude Balb/c mouse assessed as reduction in H3K27me3 level in tumor tissue at 42.5 mg/kg, ip administered for 6 times weekly for 3 weeks by Western blot analysis; format: functional, organism-based

CCN(c1cc(-c2ccc(CN3CCOCC3)cc2)cc(C(=O)NCc2c(C)cc(C)[nH]c2=O)c1C)C1CCOCC1 [TAZEMETOSTAT]
Activity [1]: inactive
viability at 10 µM [2]: 25%
viability at 10 µM [3]: 25%
viability at 10 µM [4]: 25%
Activity [5]: Active
Activity [6]: Active
Activity [7]: inactive
Activity [8]: Non-Toxic
Activity [9]: Active
